Data: the NIST ThermoML archive (doi:10.1016/j.fluid.2008.01.007)
Numbers after ± are expanded uncertainties.

Details: 101.33 kPa, Liquid

| mass density (298.15 K) [kg/m3] | Structure (SMILES) | mass density (293.15 K) [kg/m3] | further results |
| --- | --- | --- | --- |
| 873.945 ± 0.64 | c1ccccc1 [benzene] | – | – |
| – | CCCCCCCCC [nonane] | 718.418 ± 0.96 | – |
| 740.289 ± 0.92 | CCCCCCCCCCC [undecane] | – | – |
| – | CCCCn1cc[n+](C)c1.F[P-](F)(F)(F)(F)F [1-butyl-3-methylimidazolium hexafluorophosphate] | – | mass density (293.15 K, Vibrating tube method): 1380.33 ± 13 kg/m3 |
| – | Cc1cccc(C)c1 [1,3-dimethylbenzene] | 868.124 ± 0.65 | – |

| Structure (SMILES) | mass density (298.15 K) [kg/m3] | mass density (293.15 K) [kg/m3] | further results |
| --- | --- | --- | --- |
| Cc1ccccc1 [toluene] | 864.989 ± 0.18 | – | – |
